Measured values published in publication PMC11313180 (International Journal of Molecular Sciences, 2024).
Read-outs that look alike come from different tables or passages of the source.

Experiments:
[1] = molecular target: T1, HDAC4 (Homo sapiens, UniProt P56524); assay: Enzyme HDAC inhibition assay, HDAC4; assay type: biochemical; conditions: IC50 ± SEM; three experiments in duplicates; read-out: IC50 HDAC 4
T1 construct: purchased Reaction Biology Corp. KDA-21-279
Excerpt: (§2) All human recombinant enzymes were purchased from Reaction Biology Corp. (Malvern, PA, USA).

[2] = molecular target: HDAC2 (Homo sapiens, UniProt Q92769); assay: Enzyme HDAC inhibition assay, HDAC2; conditions: read-out: IC50 HDAC 2; IC50 ± SEM; three experiments in duplicates
Sequence of HDAC2 (Homo sapiens, UniProt Q92769) (Q92769 whole entry): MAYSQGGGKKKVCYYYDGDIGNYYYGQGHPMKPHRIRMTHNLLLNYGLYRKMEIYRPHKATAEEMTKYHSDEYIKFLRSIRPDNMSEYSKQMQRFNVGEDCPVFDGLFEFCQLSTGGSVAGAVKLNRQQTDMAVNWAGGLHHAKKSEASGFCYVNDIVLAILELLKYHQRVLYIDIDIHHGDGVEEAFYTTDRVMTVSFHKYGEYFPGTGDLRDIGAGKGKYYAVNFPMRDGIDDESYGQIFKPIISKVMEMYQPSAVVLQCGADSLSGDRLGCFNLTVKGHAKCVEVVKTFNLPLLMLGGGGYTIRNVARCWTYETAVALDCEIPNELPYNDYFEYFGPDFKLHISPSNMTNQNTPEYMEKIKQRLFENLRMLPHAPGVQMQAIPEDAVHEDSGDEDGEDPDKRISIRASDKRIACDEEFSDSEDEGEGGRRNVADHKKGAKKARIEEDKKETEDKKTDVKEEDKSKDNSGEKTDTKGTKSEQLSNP
Excerpt: as §2

[3] = test system: MCF-7; assay: MTT cell viability assay, MCF-7; assay type: cell-based, human
Experimental: (§1) MTT assays were performed as previously described. […] After incubation time, medium was replaced by MTT (solution of 5 mg/mL 3-(4,5-dimethylthiazol-2-yl)-2,5-diphenyl-tetrazoliumbromidin in phosphate buffered saline, Serva, Heidelberg, Germany).

[4] = test system: HDAC2; conditions: obtained by fitting Lechner et al. source data to a sigmoidal concentration–effect model; ref [21]; read-out: IC50 HDAC 2, Lechner et al.; cited from earlier work
[5] = test system: HDAC8; conditions: obtained by fitting Lechner et al. source data to a sigmoidal concentration–effect model; ref [21]; read-out: IC50 HDAC 8, Lechner et al.; cited from earlier work
[6] = test system: T47D; assay: MTT cell viability assay, T47D; assay type: cell-based, human
Experimental: as §1

[7] = test system: MDA-MB-231; assay: MTT cell viability assay, MDA-MB-231; assay type: cell-based, human
Experimental: MTT assays were performed as previously described. Cell numbers plated differed depending on each incubation time: MDA-MB-231 5000 c/w, MCF-7 5000 c/w (72 h) and 3000 c/w (120 h), T-47D 10,000 c/w (72 h) and 5000 c/w /120 h). After incubation time, medium was replaced by MTT (solution of 5 mg/mL 3-(4,5-dimethylthiazol-2-yl)-2,5-diphenyl-tetrazoliumbromidin in phosphate buffered saline, Serva, Heidelberg, Germany). After 10 min (MCF-7), 20 min (MDA-MB-231), and 30 min (T47D) and dissolving in DMSO (VWR, Langenfeld, Germany), absorbance was measured at 544 nm and 690 nm in a FLUOstar microplate reader (BMG LabTech, Offenburg, Germany).

[8] = test system: HDAC6; conditions: obtained by fitting Lechner et al. source data to a sigmoidal concentration–effect model; ref [21]; read-out: IC50 HDAC 6, Lechner et al.; cited from earlier work
[9] = molecular target: T2, HDAC8 (Homo sapiens, UniProt Q9BY41); assay: Enzyme HDAC inhibition assay, HDAC8; conditions: read-out: IC50 HDAC 8; IC50 ± SEM; three experiments in duplicates
T2 sequence (Q9BY41 1-377): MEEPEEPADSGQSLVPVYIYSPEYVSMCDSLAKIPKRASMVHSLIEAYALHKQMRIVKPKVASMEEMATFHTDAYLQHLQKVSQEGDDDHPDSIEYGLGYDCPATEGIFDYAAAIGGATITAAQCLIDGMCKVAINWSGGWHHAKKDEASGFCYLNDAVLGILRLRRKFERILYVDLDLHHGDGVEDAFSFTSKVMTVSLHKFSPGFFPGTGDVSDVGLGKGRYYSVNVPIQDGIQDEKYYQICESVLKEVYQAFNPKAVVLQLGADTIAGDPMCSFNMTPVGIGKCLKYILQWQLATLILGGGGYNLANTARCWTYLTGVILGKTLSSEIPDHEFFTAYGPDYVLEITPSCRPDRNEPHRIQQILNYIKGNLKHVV
Excerpt: as §2

[10] = test system: class I/IIb HDAC activity in T47D cells; assay: cells; assay type: cell-based, human; conditions: T47D cells, 48 h, substrate Boc-Lys-AC-AMC; IC50 ± SEM, one experiment in triplicates; read-out: IC50 Cellular HDAC Assay
Experimental: The cellular HDAC assay was performed based on an assay published by Heltweg and Jung and Ciossek et al.. Breast cancer cell line T-47D (12,000 c/w) was seeded in 96-well tissue culture plates (Corning, Kaiserslautern, Germany) in a total volume of 90 µL of culture medium. After 24 h, cells were incubated 48 h with increasing concentrations of a-lipoic acid. The reaction was started by adding 10 µL of 3 mM Boc-Lys(Ac)-AMC (Bachem, Bubensdorf, Switzerland) and again incubated for 3 h under cell culture conditions. […]

[11] = 120 h, IC50 ± SEM, read-out: IC50 MCF-7, 120 h MTT assay
[12] = 120 h, IC50 ± SEM, read-out: IC50 T-47D, 120 h MTT assay
[13] = 120 h, IC50 ± SEM, read-out: IC50 MDA-MB-231, 120 h MTT assay

T1 sequence (P56524 whole entry): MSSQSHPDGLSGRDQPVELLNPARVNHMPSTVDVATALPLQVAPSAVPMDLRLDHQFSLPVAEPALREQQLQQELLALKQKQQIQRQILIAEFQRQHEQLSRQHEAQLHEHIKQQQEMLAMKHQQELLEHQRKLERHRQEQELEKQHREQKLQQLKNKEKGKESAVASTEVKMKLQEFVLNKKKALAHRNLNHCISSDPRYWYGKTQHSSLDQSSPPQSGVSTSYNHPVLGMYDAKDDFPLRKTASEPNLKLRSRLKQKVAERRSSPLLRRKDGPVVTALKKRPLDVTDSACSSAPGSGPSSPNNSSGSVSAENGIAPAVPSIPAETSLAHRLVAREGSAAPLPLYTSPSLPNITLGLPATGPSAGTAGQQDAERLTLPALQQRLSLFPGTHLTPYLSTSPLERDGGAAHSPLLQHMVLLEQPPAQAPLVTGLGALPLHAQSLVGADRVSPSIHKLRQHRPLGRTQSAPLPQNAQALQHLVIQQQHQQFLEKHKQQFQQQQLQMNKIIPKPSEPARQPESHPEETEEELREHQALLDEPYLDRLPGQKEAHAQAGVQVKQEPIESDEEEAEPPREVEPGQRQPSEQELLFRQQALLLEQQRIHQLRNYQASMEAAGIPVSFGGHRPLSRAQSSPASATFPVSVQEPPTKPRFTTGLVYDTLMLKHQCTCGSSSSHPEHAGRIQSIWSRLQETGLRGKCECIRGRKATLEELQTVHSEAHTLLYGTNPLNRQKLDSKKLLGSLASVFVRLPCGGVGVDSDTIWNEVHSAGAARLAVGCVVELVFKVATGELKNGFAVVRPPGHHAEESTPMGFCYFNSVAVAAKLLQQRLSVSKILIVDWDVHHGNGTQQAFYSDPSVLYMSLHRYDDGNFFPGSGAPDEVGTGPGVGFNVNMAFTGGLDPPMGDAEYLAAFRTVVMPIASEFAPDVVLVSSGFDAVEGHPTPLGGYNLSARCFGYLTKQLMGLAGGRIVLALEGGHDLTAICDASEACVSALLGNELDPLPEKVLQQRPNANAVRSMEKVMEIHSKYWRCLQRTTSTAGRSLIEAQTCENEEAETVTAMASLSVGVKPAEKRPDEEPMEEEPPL

SMILES | IC50 [1] [µM] | IC50 [2] [µM] | IC50 [3, 11] [µM] | IC50 [4] [µM] | IC50 [5] [µM] | IC50 [6, 12] [µM] | IC50 [7, 13] [µM] | IC50 [8] [µM] | IC50 [9] [µM] | IC50 [10] [µM] | other results
O=C(O)CCCC[C@@H]1CCSS1 [(R)-α-lipoic acid] | 168 ± 19.3 | 208 ± 34.9 | 439 ± 16.3 | ~500 | 127 | 435 ± 28.6 | 225 ± 7.33 | 210 | 151 ± 33.4 | 969 ± 120 | inhibition of cell proliferation at 100 µM, MCF-7 ([3]; 100 µM, 120 h MTT): did not inhibit cell proliferation; reduction of proliferation at 300 µM, MCF-7 ([3]; 300 µM, 120 h MTT): significantly reduced proliferation; decrease of cell viability, MCF-7 ([3]; 1 mM, 72 h MTT): approximately 35%; IC50 ([3]; 72 h MTT, slightly above, read-out: IC50 MCF-7): ~1000 µM; increase in potency by prolongation of incubation time, MCF-7 ([3]; 120 h versus 72 h MTT): 2.7 fold; IC50 ([3]; read-out: IC50 MCF-7, 72 h MTT assay, 72 h, IC50 ± SEM): 1170 ± 28.9 µM; reduction of proliferation at 100 µM, T47D ([6]; 100 µM, 120 h MTT): 12%; reduction of proliferation at 300 µM, T47D ([6]; 300 µM, 120 h MTT, more pronounced effect in T47D): significantly reduced proliferation; decrease of cell viability, T47D ([6]; 1 mM, 72 h MTT): approximately 35%; IC50 ([6]; 72 h MTT, slightly above, read-out: IC50 T47D): ~1000 µM; increase in potency by prolongation of incubation time, T47D ([6]; 120 h versus 72 h MTT): 2.6 fold; IC50 ([6]; read-out: IC50 T-47D, 72 h MTT assay, 72 h, IC50 ± SEM): 1120 ± 67.8 µM; IC50 ([7]; 72 h MTT, slightly below, read-out: IC50 MDA-MB-231): ~1000 µM; increase in potency by prolongation of incubation time, MDA-MB-231 ([7]; 120 h versus 72 h MTT): 3.9 fold; IC50 ([7]; read-out: IC50 MDA-MB-231, 72 h MTT assay, 72 h, IC50 ± SEM): 873 ± 36 µM
O=C(O)CCCC[C@H]1CCSS1 [(S)-α-lipoic acid] | 324 ± 39.9 | 299 ± 34.6 | 429 ± 26.8 | > 500 | > 500 | 338 ± 17.4 | 243 ± 25.1 | > 500 | 559 ± 71 | 906 ± 87.7 | 
